Experimental findings from ChEMBL document CHEMBL2177025, “Chemical proteomics-based analysis of off-target binding profiles for rosiglitazone and pioglitazone: clues for assessing potential for cardiotoxicity” (J Med Chem, 2012) are described below.

SMILES strings stand for the structures. Activity calls are given as the source filed them. The rule behind the calls is not given here.

Assay [1] addresses Inactive tyrosine-protein kinase transmembrane receptor ROR1 (Mus musculus) (UniProt Q9Z139). The assay can be described thus: Binding affinity to mouse tyrosine-protein kinase transmembrane receptor ROR1 by chromatographic analysis.
Assay [2] addresses Sodium-dependent multivitamin transporter (Rattus norvegicus) (UniProt O70247). Kind of assay: Binding affinity to sodium-dependent multivitamin transporter in Sprague-Dawley rat heart homogenate after 15 mins by chromatographic analysis. The assay is classed as tissue-based.
In assay [3] the target is ATP synthase F(1) complex catalytic subunit beta, mitochondrial (Rattus norvegicus) (UniProt P10719). Kind of assay: Binding affinity to mitochondrial ATP synthase beta chain in Sprague-Dawley rat heart homogenate after 15 mins by chromatographic analysis. The assay is classed as tissue-based.
Assay [4] concerns the target Septin-9 (Rattus norvegicus) (UniProt Q9QZR6). Kind of assay: Binding affinity to septin-9 in Sprague-Dawley rat heart homogenate after 15 mins by chromatographic analysis relative to pioglitazone. The assay is classed as tissue-based.
For assay [5], the target named is T1, Cardiotrophin-like cytokine factor 1 (Mus musculus) (UniProt Q9QZM3).
T1 sequence (whole entry): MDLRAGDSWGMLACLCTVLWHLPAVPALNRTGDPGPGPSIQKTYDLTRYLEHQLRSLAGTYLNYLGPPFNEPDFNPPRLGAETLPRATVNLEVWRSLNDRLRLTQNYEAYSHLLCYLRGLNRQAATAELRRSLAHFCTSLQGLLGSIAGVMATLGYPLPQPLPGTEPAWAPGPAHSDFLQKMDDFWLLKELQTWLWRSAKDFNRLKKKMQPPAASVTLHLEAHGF
The assay can be described thus: Binding affinity to mouse cardiotrophin-like cytokine factor 1 precursor by chromatographic analysis relative to pioglitazone.

Assay [6] deals with PX domain-containing protein kinase-like protein (Rattus norvegicus) (UniProt Q4FZZ1). The assay can be described thus: Binding affinity to PX domain-containing protein kinase-like protein in Sprague-Dawley rat heart homogenate after 15 mins by chromatographic analysis relative to pioglitazone. The assay is classed as tissue-based.
For assay [7], the target named is Fanconi anemia group M protein homolog (Mus musculus) (UniProt Q8BGE5). Kind of assay: Binding affinity to mouse Fanconi anemia group M protein homologue by chromatographic analysis relative to pioglitazone.
Assay [8] addresses Neurofibromin (Mus musculus) (UniProt Q04690). Kind of assay: Binding affinity to mouse neurofibromin by chromatographic analysis relative to pioglitazone.
The target of assay [9] is Selenocysteine insertion sequence-binding protein 2 (Rattus norvegicus) (UniProt Q9QX72). The assay can be described thus: Binding affinity to SECIS-binding protein 2 in Sprague-Dawley rat heart homogenate after 15 mins by chromatographic analysis relative to pioglitazone. The assay is classed as tissue-based.
In assay [10] the target is Rab11 family-interacting protein 4 (Mus musculus) (UniProt Q8BQP8). The assay can be described thus: Binding affinity to mouse Rab11 family interacting protein 4 by chromatographic analysis relative to pioglitazone.
Assay [11] addresses Prolactin-3B1 (Rattus norvegicus) (UniProt P09321). The assay can be described thus: Binding affinity to chorionic somatomammotropin hormone 2 precursor in Sprague-Dawley rat heart homogenate after 15 mins by chromatographic analysis relative to pioglitazone. The assay is classed as tissue-based.
For assay [12], the target named is Cyclin-dependent kinase 7 (Mus musculus) (UniProt Q03147). Kind of assay: Binding affinity to mouse cell division protein kinase 7 by chromatographic analysis.
Assay [13] concerns the target Hepatocyte nuclear factor 6 (Mus musculus) (UniProt O08755). The assay can be described thus: Binding affinity to mouse hepatocyte nuclear factor 6 by chromatographic analysis.
The target of assay [14] is Kinesin light chain 1 (Rattus norvegicus) (UniProt P37285). The assay can be described thus: Binding affinity to Kinesin light chain 1 in Sprague-Dawley rat heart homogenate after 15 mins by chromatographic analysis. The assay is classed as tissue-based.
Assay [15] has as its target Malate dehydrogenase, cytoplasmic (Mus musculus) (UniProt P14152). The assay can be described thus: Binding affinity to mouse cytoplasmic malate dehydrogenase by chromatographic analysis.
For assay [16], the target named is Glyceraldehyde-3-phosphate dehydrogenase (Rattus norvegicus) (UniProt P04797). Kind of assay: Binding affinity to glyceraldehyde 3-phosphate dehydrogenase in Sprague-Dawley rat heart homogenate after 15 mins by chromatographic analysis. The assay is classed as tissue-based.
Assay [17] has as its target L-lactate dehydrogenase B chain (Rattus norvegicus) (UniProt P42123). The assay can be described thus: Binding affinity to L-lactate dehydrogenase B chain in Sprague-Dawley rat heart homogenate after 15 mins by chromatographic analysis relative to rosiglitazone. The assay is classed as tissue-based.
The target of assay [18] is Malate dehydrogenase, mitochondrial (Rattus norvegicus) (UniProt P04636). Kind of assay: Binding affinity to mitochondrial malate dehydrogenase in Sprague-Dawley rat heart homogenate after 15 mins by chromatographic analysis. The assay is classed as tissue-based.
For assay [19], the target named is Cyclic AMP-dependent transcription factor ATF-2 (Mus musculus) (UniProt P16951). The assay can be described thus: Binding affinity to mouse cyclic AMP-dependent transcription factor ATF-2 by chromatographic analysis.
For assay [20], the target named is Citrate synthase, mitochondrial (Mus musculus) (UniProt Q9CZU6). The assay can be described thus: Binding affinity to mouse mitochondrial citrate synthase by chromatographic analysis relative to rosiglitazone.
The target of assay [21] is Creatine kinase M-type (Rattus norvegicus) (UniProt P00564). The assay can be described thus: Binding affinity to creatine kinase M-type in Sprague-Dawley rat heart homogenate after 15 mins by chromatographic analysis relative to rosiglitazone. The assay is classed as tissue-based.
The target in assay [22] is Triosephosphate isomerase (Rattus norvegicus) (UniProt P48500). Kind of assay: Binding affinity to triosephosphate isomerase in Sprague-Dawley rat heart homogenate after 15 mins by chromatographic analysis relative to rosiglitazone. The assay is classed as tissue-based.
Assay [23] deals with Hemopexin (Rattus norvegicus) (UniProt P20059). The assay can be described thus: Binding affinity to hemopexin precursor in Sprague-Dawley rat heart homogenate after 15 mins by chromatographic analysis. The assay is classed as tissue-based.
The target in assay [24] is Creatine kinase B-type (Rattus norvegicus) (UniProt P07335). The assay can be described thus: Binding affinity to creatine kinase B-type in Sprague-Dawley rat heart homogenate after 15 mins by chromatographic analysis. The assay is classed as tissue-based.
Assay [25] has as its target Trace amine-associated receptor 7b (Rattus norvegicus) (UniProt Q923X8). Kind of assay: Binding affinity to trace amine-associated receptor 7b in Sprague-Dawley rat heart homogenate after 15 mins by chromatographic analysis. The assay is classed as tissue-based.
Assay [26] deals with Interleukin-12 subunit beta (Mus musculus) (UniProt P43432). Kind of assay: Binding affinity to mouse interleukin-12 beta chain precursor by chromatographic analysis.
The target in assay [27] is Aspartate aminotransferase, mitochondrial (Rattus norvegicus) (UniProt P00507). Kind of assay: Binding affinity to mitochondrial aspartate aminotransferase in Sprague-Dawley rat heart homogenate after 15 mins by chromatographic analysis. The assay is classed as tissue-based.
The target of assay [28] is Phosphoglycerate kinase 1 (Rattus norvegicus) (UniProt P16617). The assay can be described thus: Binding affinity to Phosphoglycerate kinase 1 in Sprague-Dawley rat heart homogenate after 15 mins by chromatographic analysis. The assay is classed as tissue-based.
Assay [29] addresses 2-oxoglutarate dehydrogenase complex component E1 (Mus musculus) (UniProt Q60597). The assay can be described thus: Binding affinity to mouse mitochondrial 2-oxoglutarate dehydrogenase E1 component by chromatographic analysis.

Sequence of L-lactate dehydrogenase B chain (Rattus norvegicus) (P42123 whole entry): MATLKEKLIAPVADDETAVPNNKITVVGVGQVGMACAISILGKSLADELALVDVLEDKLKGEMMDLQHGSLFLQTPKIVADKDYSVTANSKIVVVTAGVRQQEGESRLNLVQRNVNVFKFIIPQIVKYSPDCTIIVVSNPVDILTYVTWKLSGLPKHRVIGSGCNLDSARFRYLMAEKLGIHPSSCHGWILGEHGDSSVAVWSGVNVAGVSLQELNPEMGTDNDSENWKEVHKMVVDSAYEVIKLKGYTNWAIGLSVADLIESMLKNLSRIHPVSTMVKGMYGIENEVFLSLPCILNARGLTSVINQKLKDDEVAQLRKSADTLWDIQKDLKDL
Sequence of Neurofibromin (Mus musculus) (Q04690 whole entry): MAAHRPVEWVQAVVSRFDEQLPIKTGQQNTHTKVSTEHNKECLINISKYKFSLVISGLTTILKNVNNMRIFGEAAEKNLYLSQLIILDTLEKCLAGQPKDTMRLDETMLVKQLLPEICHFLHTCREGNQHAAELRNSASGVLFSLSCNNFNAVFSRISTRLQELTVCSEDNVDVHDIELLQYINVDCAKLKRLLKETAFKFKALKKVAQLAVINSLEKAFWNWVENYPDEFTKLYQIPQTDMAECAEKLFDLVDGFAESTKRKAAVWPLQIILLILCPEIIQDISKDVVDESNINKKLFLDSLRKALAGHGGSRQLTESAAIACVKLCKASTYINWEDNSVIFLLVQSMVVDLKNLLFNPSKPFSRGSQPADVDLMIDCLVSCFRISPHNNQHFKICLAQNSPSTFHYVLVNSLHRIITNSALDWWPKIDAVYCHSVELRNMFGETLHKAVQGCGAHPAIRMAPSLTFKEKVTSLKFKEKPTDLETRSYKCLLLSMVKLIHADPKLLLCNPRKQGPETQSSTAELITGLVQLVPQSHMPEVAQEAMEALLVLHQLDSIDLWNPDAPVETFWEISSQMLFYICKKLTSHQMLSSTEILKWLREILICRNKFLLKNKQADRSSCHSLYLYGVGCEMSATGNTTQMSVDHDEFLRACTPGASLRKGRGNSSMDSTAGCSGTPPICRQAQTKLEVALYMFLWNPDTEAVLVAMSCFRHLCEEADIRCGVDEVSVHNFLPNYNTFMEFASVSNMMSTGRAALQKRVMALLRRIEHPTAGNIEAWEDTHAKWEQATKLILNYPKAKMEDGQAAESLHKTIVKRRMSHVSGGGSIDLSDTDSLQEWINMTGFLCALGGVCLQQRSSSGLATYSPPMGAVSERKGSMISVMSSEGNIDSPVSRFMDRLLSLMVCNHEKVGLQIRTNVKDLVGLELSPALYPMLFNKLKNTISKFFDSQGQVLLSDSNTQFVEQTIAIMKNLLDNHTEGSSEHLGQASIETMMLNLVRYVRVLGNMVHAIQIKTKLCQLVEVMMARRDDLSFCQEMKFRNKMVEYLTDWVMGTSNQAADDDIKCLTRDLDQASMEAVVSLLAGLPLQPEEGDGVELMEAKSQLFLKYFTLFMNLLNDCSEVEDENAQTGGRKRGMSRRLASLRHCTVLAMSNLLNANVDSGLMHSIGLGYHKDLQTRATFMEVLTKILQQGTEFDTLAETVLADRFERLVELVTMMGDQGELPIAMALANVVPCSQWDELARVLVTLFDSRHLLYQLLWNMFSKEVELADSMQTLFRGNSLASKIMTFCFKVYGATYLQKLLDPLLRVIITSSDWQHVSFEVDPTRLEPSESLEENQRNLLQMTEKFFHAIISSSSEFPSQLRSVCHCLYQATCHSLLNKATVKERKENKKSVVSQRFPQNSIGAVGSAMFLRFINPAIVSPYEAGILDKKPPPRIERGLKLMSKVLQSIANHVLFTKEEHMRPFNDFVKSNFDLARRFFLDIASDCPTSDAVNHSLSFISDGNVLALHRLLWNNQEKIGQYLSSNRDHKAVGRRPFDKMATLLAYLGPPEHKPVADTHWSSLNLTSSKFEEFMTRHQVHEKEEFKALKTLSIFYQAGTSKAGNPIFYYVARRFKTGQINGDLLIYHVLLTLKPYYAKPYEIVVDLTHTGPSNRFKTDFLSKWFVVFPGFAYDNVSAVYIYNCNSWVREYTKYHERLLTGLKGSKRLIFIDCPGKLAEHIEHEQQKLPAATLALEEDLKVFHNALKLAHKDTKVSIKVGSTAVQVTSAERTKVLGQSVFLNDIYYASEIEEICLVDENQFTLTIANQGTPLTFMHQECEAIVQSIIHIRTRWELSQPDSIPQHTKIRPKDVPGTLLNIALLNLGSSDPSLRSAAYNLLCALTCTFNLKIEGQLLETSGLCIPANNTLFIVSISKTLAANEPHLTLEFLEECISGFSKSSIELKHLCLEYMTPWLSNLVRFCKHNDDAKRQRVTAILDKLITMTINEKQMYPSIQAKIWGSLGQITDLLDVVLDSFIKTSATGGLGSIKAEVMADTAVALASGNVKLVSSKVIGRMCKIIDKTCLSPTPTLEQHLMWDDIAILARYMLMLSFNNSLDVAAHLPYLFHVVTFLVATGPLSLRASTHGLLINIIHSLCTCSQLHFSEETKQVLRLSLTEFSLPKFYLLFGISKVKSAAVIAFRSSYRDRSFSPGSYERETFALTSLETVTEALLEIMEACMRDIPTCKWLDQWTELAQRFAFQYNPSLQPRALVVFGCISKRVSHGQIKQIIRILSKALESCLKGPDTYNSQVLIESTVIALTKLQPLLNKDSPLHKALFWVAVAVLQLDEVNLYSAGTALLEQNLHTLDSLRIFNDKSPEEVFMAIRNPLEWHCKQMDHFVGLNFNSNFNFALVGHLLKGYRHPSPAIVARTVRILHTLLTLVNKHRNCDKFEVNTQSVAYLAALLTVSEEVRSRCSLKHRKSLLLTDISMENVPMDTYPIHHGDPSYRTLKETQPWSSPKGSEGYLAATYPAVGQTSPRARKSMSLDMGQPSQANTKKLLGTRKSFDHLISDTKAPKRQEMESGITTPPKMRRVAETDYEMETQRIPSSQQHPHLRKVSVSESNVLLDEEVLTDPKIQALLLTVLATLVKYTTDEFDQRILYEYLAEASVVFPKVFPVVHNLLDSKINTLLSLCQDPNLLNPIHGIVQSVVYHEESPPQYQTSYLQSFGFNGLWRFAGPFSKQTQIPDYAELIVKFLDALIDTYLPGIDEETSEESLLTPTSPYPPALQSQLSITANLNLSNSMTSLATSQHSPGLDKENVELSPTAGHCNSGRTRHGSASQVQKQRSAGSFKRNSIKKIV
Sequence of ATP synthase F(1) complex catalytic subunit beta, mitochondrial (Rattus norvegicus) (P10719 whole entry, one chain of several): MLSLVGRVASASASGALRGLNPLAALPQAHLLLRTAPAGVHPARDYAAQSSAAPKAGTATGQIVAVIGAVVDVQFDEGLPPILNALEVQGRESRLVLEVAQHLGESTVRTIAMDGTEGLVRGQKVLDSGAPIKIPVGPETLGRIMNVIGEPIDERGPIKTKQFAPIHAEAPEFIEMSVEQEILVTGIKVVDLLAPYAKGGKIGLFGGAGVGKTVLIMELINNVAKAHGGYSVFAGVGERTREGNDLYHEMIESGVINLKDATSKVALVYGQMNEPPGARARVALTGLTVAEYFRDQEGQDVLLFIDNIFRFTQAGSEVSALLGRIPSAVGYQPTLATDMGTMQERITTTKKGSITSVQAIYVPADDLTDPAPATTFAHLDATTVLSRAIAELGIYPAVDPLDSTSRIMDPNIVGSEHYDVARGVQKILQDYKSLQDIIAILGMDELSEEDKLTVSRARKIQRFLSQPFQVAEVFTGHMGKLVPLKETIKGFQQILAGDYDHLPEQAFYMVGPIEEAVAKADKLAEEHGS
Sequence of Sodium-dependent multivitamin transporter (Rattus norvegicus) (O70247 whole entry): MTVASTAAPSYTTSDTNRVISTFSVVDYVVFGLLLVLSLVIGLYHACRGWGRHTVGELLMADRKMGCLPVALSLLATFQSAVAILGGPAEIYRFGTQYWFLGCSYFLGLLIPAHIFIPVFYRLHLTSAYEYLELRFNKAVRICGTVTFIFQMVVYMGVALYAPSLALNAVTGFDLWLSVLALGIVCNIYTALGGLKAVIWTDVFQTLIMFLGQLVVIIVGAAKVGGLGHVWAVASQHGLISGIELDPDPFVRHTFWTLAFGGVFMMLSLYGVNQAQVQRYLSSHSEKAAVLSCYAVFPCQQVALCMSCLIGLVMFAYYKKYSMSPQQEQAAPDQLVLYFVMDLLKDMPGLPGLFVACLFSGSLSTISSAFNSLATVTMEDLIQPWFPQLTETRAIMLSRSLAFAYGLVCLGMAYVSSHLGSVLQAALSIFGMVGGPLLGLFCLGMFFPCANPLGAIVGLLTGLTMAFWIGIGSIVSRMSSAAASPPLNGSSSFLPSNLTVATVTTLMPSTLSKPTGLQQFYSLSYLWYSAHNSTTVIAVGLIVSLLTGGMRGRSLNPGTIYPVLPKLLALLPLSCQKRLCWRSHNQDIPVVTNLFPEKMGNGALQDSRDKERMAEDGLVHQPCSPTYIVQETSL
Sequence of PX domain-containing protein kinase-like protein (Rattus norvegicus) (Q4FZZ1 whole entry, the tested form may be a part): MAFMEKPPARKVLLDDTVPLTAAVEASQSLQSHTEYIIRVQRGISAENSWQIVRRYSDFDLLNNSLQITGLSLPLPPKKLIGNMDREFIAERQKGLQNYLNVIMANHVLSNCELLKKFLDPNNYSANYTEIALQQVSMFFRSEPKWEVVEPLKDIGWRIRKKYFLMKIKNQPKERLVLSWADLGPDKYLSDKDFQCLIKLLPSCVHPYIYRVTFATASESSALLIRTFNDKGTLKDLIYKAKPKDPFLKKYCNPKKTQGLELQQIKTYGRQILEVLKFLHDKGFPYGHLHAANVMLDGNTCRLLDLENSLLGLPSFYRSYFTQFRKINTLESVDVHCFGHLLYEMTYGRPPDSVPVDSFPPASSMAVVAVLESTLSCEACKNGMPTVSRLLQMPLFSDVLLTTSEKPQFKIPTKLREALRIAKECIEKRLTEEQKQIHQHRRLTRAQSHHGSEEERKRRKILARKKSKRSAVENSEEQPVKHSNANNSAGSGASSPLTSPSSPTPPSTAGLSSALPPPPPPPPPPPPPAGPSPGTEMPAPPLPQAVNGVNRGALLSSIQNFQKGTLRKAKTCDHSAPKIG

Turning to `CN(CCOc1ccc(CC2SC(=O)NC2=O)cc1)c1ccccn1` (configuration not stated), the result in [1], in assay [2], in assay [3], in assay [12], in assay [13] and in assay [14] was Active. In addition, the outcome in assay [15], in [16], in assay [17] and in assay [18] was Active. The fold change (FC) in [4] is 2.08; in assay [5], 2.56; in [6], 2.64; in [7], 2.94; in assay [8], 3.1; in [9], 3.22. Besides, the fold change (FC) is 3.74 in assay [10] and 3.92 in [11].
For `CCc1ccc(CCOc2ccc(CC3SC(=O)NC3=O)cc2)nc1` (configuration not stated), the outcome in assay [1], in [2], in assay [3], in [6], in assay [8] and in assay [23] was Active. Moreover, the outcome in assay [24], in [25], in assay [26], in assay [27], in [28] and in assay [29] was Active. In addition, the outcome in [16] and in [17] was Active. For the same compound, the fold change (FC) in [19] was determined as 1.64; in assay [20], 5.52; in assay [21] it was 6.16; in [22], 6.46; in assay [17] it was 2.26.
